# Measured values: patent US9725448B2, “Neprilysin inhibitors” (THERAVANCE BIOPHARMA R&D IP, LLC, priority 2011, dated 2017)
# Target: T1, human NEP (Homo sapiens, UniProt P08473)
# T1 construct: purchased R&D Systems, Minneapolis, Minn; 1182-ZN
# Experiment: In vitro enzyme inhibition assay at human NEP (fluorogenic peptide substrate)
# Assay type: biochemical
# Conditions: pKi values at human NEP (recombinant), given as ranges
# Description: The inhibitory activities of compounds at human and rat neprilysin (EC 3.4.24.11; NEP) and human angiotensin converting enzyme (ACE) were determined using in vitro assays as described below.
# Recombinant human NEP and recombinant human ACE were obtained commercially (R&D Systems, Minneapolis, Minn., catalog numbers 1182-ZN and 929-ZN, respectively). The fluorogenic peptide substrate Mca-D-Arg-Arg-Leu-Dap-(Dnp)-OH (Medeiros et al. (1997) Braz. J. Med. Biol. Res. 30:1157-62; Anaspec, San Jose, Calif.) and Abz-Phe-Arg-Lys(Dnp)-Pro-OH (Araujo et al. (2000) Biochemistry 39:8519-8525; Bachem, Torrance, Calif.) were used in the NEP and ACE assays respectively.
# The assays were performed in 384-well white opaque plates at 37° C. using the fluorogenic peptide substrates at a concentration of 10 μM in Assay Buffer (NEP: 50 mM HEPES, pH 7.5, 100 mM NaCl, 0.01% polyethylene glycol sorbitan monolaurate (Tween-20), […]; ACE: 50 mM HEPES, pH 7.5, 100 mM NaCl, 0.01% Tween-20, 1 μM ZnSO4).
# Test compounds were assayed over the range of concentrations from 10 μM to 20 pM. Test compounds were added to the enzymes and incubated for 30 minute at 37° C. prior to initiating the reaction by the addition of substrate. Reactions were terminated after 20 minutes of incubation at 37° C. by the addition of glacial acetic acid to a final concentration of 3.6% (v/v).
# Plates were read on a fluorometer with excitation and emission wavelengths set to 320 nm and 405 nm, respectively. Inhibition constants were obtained by nonlinear regression of the data using the equation (GraphPad Software, Inc., San Diego, Calif.): ν=ν0/[1+(I/K′)] where ν is the reaction rate, ν0 is the uninhibited reaction rate, I is the inhibitor concentration and K′ is the apparent inhibition constant.
# Compounds of the invention were tested in this assay and found to have pKi values at human NEP as follows.
# T1 sequence (P08473 52-750 limits assumed): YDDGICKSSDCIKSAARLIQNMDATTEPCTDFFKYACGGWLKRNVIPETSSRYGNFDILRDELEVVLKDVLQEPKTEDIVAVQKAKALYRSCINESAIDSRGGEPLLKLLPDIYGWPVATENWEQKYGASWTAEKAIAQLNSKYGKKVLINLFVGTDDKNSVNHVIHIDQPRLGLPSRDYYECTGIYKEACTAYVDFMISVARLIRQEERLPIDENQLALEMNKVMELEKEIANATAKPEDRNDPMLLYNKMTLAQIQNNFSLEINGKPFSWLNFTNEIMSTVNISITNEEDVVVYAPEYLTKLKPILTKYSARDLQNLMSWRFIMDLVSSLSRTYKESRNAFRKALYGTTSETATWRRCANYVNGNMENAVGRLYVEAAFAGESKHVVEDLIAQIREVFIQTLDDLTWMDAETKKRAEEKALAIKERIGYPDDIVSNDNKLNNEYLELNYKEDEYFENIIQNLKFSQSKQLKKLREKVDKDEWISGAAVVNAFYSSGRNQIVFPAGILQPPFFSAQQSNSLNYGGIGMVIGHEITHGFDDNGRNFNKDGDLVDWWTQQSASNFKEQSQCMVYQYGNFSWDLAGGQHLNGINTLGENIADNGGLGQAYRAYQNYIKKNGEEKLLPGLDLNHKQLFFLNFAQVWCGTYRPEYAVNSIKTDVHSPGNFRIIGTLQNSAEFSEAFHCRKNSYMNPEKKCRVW
row,SMILES,Ki
1,"C[C@@](O)(CN(Cc1ccc(-c2cccc(Cl)c2)cc1)NC(=O)c1cnn[nH]1)C(=O)O [Example 7-1, (R)-3-[N-(3′-Chlorobiphenyl-4-ylmethyl)-N′-(3H-[1,2,3]triazole-4-carbonyl)-hydrazino]-2-hydroxy-2-methyl-propionic acid]",1.26 to 10 nM
2,"C[C@@](O)(CN(Cc1ccc(-c2cccc(Cl)c2)cc1)NC(=O)c1cn(O)nn1)C(=O)O [Example 7-2, (R)-3-[N-(3′-Chlorobiphenyl-4-ylmethyl)-N′-(1-hydroxy-1H-[1,2,3]triazole-4-carbonyl)-hydrazino]-2-hydroxy-2-methyl-propionic acid]",1.26 to 10 nM
3,"C[C@@](O)(CN(Cc1ccc(-c2cccc(Cl)c2)cc1)NC(=O)c1cc(O)no1)C(=O)O [Example 7-11, (R)-3-[N-(3′-Chlorobiphenyl-4-ylmethyl)-N′-(3-hydroxy-isoxazole-5-carbonyl)-hydrazino]-2-hydroxy-2-methyl-propionic acid]",≤ 1 nM
4,"Cc1ccc(Cl)cc1-c1ccc(CN(C[C@@](C)(O)C(=O)O)NC(=O)c2cc(O)no2)cc1 [Example 7-12, (R)-3-[N-(5′-Chloro-2′-methyl-biphenyl-4-ylmethyl)-N′-(3-hydroxy-isoxazole-5-carbonyl)-hydrazino]-2-hydroxy-2-methyl-propionic acid]",≤ 1 nM
5,"COc1ccccc1-c1ccc(CN(C[C@@](C)(O)C(=O)O)NC(=O)c2cc(O)no2)cc1 [Example 7-14, (R)-2-Hydroxy-3-[N′-(3-hydroxy-isoxazole-5-carbonyl)-N-(2′-methoxy-biphenyl-4-ylmethyl)-hydrazino]-2-methyl-propionic acid]",1.26 to 10 nM
6,"C[C@@](O)(CN(Cc1ccc(-c2ccccc2Cl)cc1)NC(=O)c1cc(O)no1)C(=O)O [Example 7-15, (R)-3-[N-(2′-Chlorobiphenyl-4-ylmethyl)-N′-(3-hydroxy-isoxazole-5-carbonyl)-hydrazino]-2-hydroxy-2-methyl-propionic acid]",12.6 to 100 nM
7,"C[C@@](O)(CN(Cc1ccc(-c2ccccc2O)cc1)NC(=O)c1cc(O)no1)C(=O)O [Example 7-16, (R)-2-Hydroxy-3-[N-(2′-hydroxy-biphenyl-4-ylmethyl)-N′-(3-hydroxy-isoxazole-5-carbonyl)-hydrazino]-2-methyl-propionic acid]",1.26 to 10 nM
8,"C[C@@](O)(CN(Cc1ccc(-c2ccccc2F)cc1)NC(=O)c1cc(O)no1)C(=O)O [Example 7-17, (R)-3-[N-(2′-Fluorobiphenyl-4-ylmethyl)-N′-(3-hydroxy-isoxazole-5-carbonyl)-hydrazino]-2-hydroxy-2-methyl-propionic acid]",1.26 to 10 nM
9,"C[C@@](O)(CN(Cc1ccc(-c2cc(F)ccc2F)cc1)NC(=O)c1cc(O)no1)C(=O)O [Example 7-18, (R)-3-[N-(2′,5′-Difluorobiphenyl-4-ylmethyl)-N′-(3-hydroxy-isoxazole-5-carbonyl)-hydrazino]-2-hydroxy-2-methyl-propionic acid]",1.26 to 10 nM
10,"C[C@@](O)(CN(Cc1ccc(-c2cc(Cl)ccc2Cl)cc1)NC(=O)c1cc(O)no1)C(=O)O [Example 7-19, (R)-3-[N-(2′,5′-Dichlorobiphenyl-4-ylmethyl)-N′-(3-hydroxy-isoxazole-5-carbonyl)-hydrazino]-2-hydroxy-2-methyl-propionic acid]",≤ 1 nM
11,"C[C@@](O)(CN(Cc1ccc(-c2cccc(F)c2)cc1)NC(=O)c1cc(O)no1)C(=O)O [Example 7-20, (R)-3-[N-(3′-Fluorobiphenyl-4-ylmethyl)-N′-(3-hydroxy-isoxazole-5-carbonyl)-hydrazino]-2-hydroxy-2-methyl-propionic acid]",1.26 to 10 nM
12,"C[C@@](O)(CN(Cc1ccc(-c2cc(Cl)ccc2F)cc1)NC(=O)c1c[nH]c(=O)o1)C(=O)O [Example 7-22, (R)-3-[N-(5′-Chloro-2′-fluorobiphenyl-4-ylmethyl)-N′-(2-oxo-2,3-dihydro-oxazole-5-carbonyl)-hydrazino]-2-hydroxy-2-methyl-propionic acid]",1.26 to 10 nM
13,"C[C@@](O)(CN(Cc1ccc(-c2cc(Cl)ccc2F)cc1)NC(=O)c1nnn[nH]1)C(=O)O [Example 7-23, (R)-3-[N-(5′-Chloro-2′-fluorobiphenyl-4-ylmethyl)-N′-(1H-tetrazole-5-carbonyl)-hydrazino]-2-hydroxy-2-methyl-propionic acid]",1.26 to 10 nM
14,"C[C@@](O)(CN(Cc1ccc(-c2cccc(Cl)c2)cc1)NC(=O)c1cc(C(=O)O)ncn1)C(=O)O [Example 7-26, 6-[N′—((R)-2-Carboxy-2-hydroxy-propyl)-N′-(3′-chlorobiphenyl-4-ylmethyl)-hydrazinocarbonyl]-pyrimidine-4-carboxylic acid]",≤ 1 nM
15,"CC(C)(C[C@@H](Cc1ccc(-c2ccccc2)cc1)NC(=O)c1cc(O)no1)C(=O)O [Example 8A, (R)-5-Biphenyl-4-yl-4-[(3-hydroxy-isoxazole-5-carbonyl)-amino]-2,2-dimethyl-pentanoic acid]",≤ 1 nM
16,"CC(C)(C[C@@H](Cc1ccc(-c2ccccc2)cc1)NC(=O)c1cnn[nH]1)C(=O)O [Example 9-1, (R)-5-Biphenyl-4-yl-2,2-dimethyl-4-[(3H-[1,2,3]triazole-4-carbonyl)-amino]-pentanoic acid]",1.26 to 10 nM

# The next lines start with the values.
row,Ki,SMILES
1,≤ 1 nM,"C[C@@](O)(CN(Cc1ccc(-c2cc(Cl)ccc2F)cc1)NC(=O)c1cn(O)nn1)C(=O)O [Example 7-3, (R)-3-[N-(5′-Chloro-2′-fluorobiphenyl-4-ylmethyl)-N′-(1-hydroxy-1H-[1,2,3]triazole-4-carbonyl)-hydrazino]-2-hydroxy-2-methyl-propionic acid]"
2,12.6 to 100 nM,"C[C@@](O)(CN(Cc1ccc(-c2cccc(Cl)c2)cc1)NC(=O)c1cc(-c2cnccn2)n[nH]1)C(=O)O [Example 7-8, (R)-3-[N-(3′-Chlorobiphenyl-4-ylmethyl)-N′-(5-pyrazin-2-yl-2H-pyrazole-3-carbonyl)-hydrazino]-2-hydroxy-2-methyl-propionic acid]"
3,12.6 to 100 nM,"CN(C)C(=O)c1cc(C(=O)NN(Cc2ccc(-c3cccc(Cl)c3)cc2)C[C@@](C)(O)C(=O)O)[nH]n1 [Example 7-9, (R)-3-[N-(3′-Chlorobiphenyl-4-ylmethyl)-N′-(5-dimethylcarbamoyl-2H-pyrazole-3-carbonyl)-hydrazino]-2-hydroxy-2-methyl-propionic acid]"
4,≤ 1 nM,"C[C@@](O)(CN(Cc1ccc(-c2cccc(Cl)c2)cc1)NC(=O)c1cc(C(=O)O)n[nH]1)C(=O)O [Example 7-10, 5-[N′—((R)-2-Carboxy-2-hydroxy-propyl)-N′-(3′-chlorobiphenyl-4-ylmethyl)-hydrazinocarbonyl]-1H-pyrazole-3-carboxylic acid]"
5,12.6 to 100 nM,"C[C@@](O)(CN(Cc1ccc(-c2cc(Cl)cc(Cl)c2)cc1)NC(=O)c1cc(O)no1)C(=O)O [Example 7-13, (R)-3-[N-(3′,5′-Dichlorobiphenyl-4-ylmethyl)-N′-(3-hydroxy-isoxazole-5-carbonyl)-hydrazino]-2-hydroxy-2-methyl-propionic acid]"
6,1.26 to 10 nM,"C[C@@](O)(CN(Cc1ccc(-c2cccc(Cl)c2)cc1)NC(=O)c1c[nH]c(=O)o1)C(=O)O [Example 7-21, (R)-3-[N-(3′-Chlorobiphenyl-4-ylmethyl)-N′-(2-oxo-2,3-dihydro-oxazole-5-carbonyl)-hydrazino]-2-hydroxy-2-methyl-propionic acid]"
7,1.26 to 10 nM,"Cc1ccc(Cl)cc1-c1ccc(CN(C[C@@](C)(O)C(=O)O)NC(=O)c2nnn[nH]2)cc1 [Example 7-24, (R)-3-[N-(5′-Chloro-2′-methyl-biphenyl-4-ylmethyl)-N′-(1H-tetrazole-5-carbonyl)-hydrazino]-2-hydroxy-2-methyl-propionic acid]"
8,1.26 to 10 nM,"C[C@@](O)(CN(Cc1ccc(-c2cccc(Cl)c2)cc1)NC(=O)c1cnc(O)nc1)C(=O)O [Example 7-25, (R)-3-[N-(3′-Chlorobiphenyl-4-ylmethyl)-N′-(2-hydroxy-pyrimidine-5-carbonyl)-hydrazino]-2-hydroxy-2-methyl-propionic acid]"
9,1.26 to 10 nM,"CC(C)(C[C@@H](Cc1ccc(-c2ccccc2)cc1)NC(=O)c1nc(O)n[nH]1)C(=O)O [Example 9-3, (R)-5-Biphenyl-4-yl-4-[(5-hydroxy-2H-[1,2,4]triazole-3-carbonyl)-amino]-2,2-dimethyl-pentanoic acid]"
10,12.6 to 100 nM,"CC(C)(C[C@@H](Cc1ccc(-c2ccccc2)cc1)NC(=O)c1ncn[nH]1)C(=O)O [Example 9-4, (R)-5-Biphenyl-4-yl-2,2-dimethyl-4-[(2H-[1,2,4]triazole-3-carbonyl)-amino]-pentanoic acid]"
11,1.26 to 10 nM,"CC(C)(C[C@@H](Cc1ccc(-c2ccccc2)cc1)NC(=O)c1cnc(O)nc1)C(=O)O [Example 9-5, (R)-5-Biphenyl-4-yl-4-[(2-hydroxy-pyrimidine-5-carbonyl)-amino]-2,2-dimethyl-pentanoic acid]"
